Test system: Mycobacterium tuberculosis (adjuvant) induced arthritis
Test: Adjuvant induced arthritis in rats, histopathology of paw/ankle joint tissue
Type: in vivo, Albino Wistar rats
Details: for Histopathology of rat paw tissue: articular cartilage / Histopathology of rat paw tissue: granulomas / Histopathology of rat paw tissue: synovial tissue: adjuvant arthritic rats, H&E stain
Procedure: Pathological damage: Adjuvant induced arthritis in animal models
Animals used: Albino Wistar rats of either sex
Weight of the animals: 140-180 grams
Number of animals/group: 5
Methodology: Chronic arthritis was induced in rats by the injection of 0.05 mL of (0.5% w/v) suspension of killed Mycobacterium tuberculosis, homogenized in liquid paraffin in the left hind foot.
Right ankle joints of the animals in the control and treated groups were separated from the hind paw, weighed and immersed in 10% buffered formalin for 24 hours, followed by decalcification in 10% EDTA. The joints were then dehydrated, processed and paraffin (56 C-58 C) blocks were prepared, stained (hematoxylin and eosin) and examined under the compound microscope (Patel P, Patel D, Patel N. Experimental investigation of anti-rheumatoid activity of Pleurotus sajorcaju in adjuvant-induced arthritic rats. Chinese Journal of Natural Medicines, 2012; 10 (4): 0269-0274.

With COc1cc(/C=C/C(=O)COC(=O)/C=C/c2ccc(O)c(OC)c2)ccc1O [Calebin A] the “Histopathology of rat paw tissue: articular cartilage” value (Calebin A 10 mg/kg per oral) was “intact articular cartilage with synovial tissue in the joint”, the “Histopathology of rat paw tissue: granulomas” value (Calebin A 10 mg/kg per oral) was “No granulomas were seen” and the “Histopathology of rat paw tissue: synovial tissue” value (Calebin A 10 mg/kg per oral) was “congested vascular spaces (Long-Arrows), scattered lymphocytes (Short-Arrow) and intact synovial lining”. The “Histopathology of rat paw tissue: articular cartilage” value (Calebin A 20 mg/kg per oral) was “intact articular cartilage with synovial tissue in the joint”, the “Histopathology of rat paw tissue: granulomas” value (Calebin A 20 mg/kg per oral) was “No granulomas were seen” and the “Histopathology of rat paw tissue: synovial tissue” value (Calebin A 20 mg/kg per oral) was “mild synovial epithelial hyperplasia (Short-Arrow), scattered lymphocytes (Long-Arrow) and intact vascular spaces”. The “Protection of articular cartilage (histopathological studies, overall)” value (arthritic rats, across doses) was “dose dependant protection of articular cartilage”.
